pIC50: −log10 of the molar value. Values belong to the compound of their own block, whether it stands above or below them. Calls of active or inactive are those of the source. No cut-off for these calls is given here.
Experiments:
[1] = Chromatographic hydrophobicity index, log D of the compound at pH 7.4 by HPLC method; format: physicochemical; conditions: buffer
hERG (KCNH2) = hERG (KCNH2) (Homo sapiens, UniProt Q12809); assay: in vitro; conditions: CHO-K1 cells expressing human ERG
CYP3A4 = CYP3A4 (Homo sapiens, UniProt P08684); assay: in vitro; conditions: human CYP3A4 supersomes
MDA-MB-231 [2] = assay: cells; conditions: Homo sapiens, MDA-MB-231, 72 h
[3] = Drug level in tumor of human MDA-MB-231 cells xenografted Balb/c SCID mouse at 20 mg/kg, po administered as single dose measured up to 72 hrs by UPLC analysis; format: ADME, organism-based, Neoplasm; conditions: in vivo
[4] = Oral bioavailability in Balb/c mouse at 10 mg/kg by UHPLC and ESI mass spectrometry; format: ADME, organism-based; conditions: in vivo
in vivo = conditions: cynomolgus monkey, po, 5 mg/kg
Mus musculus [5] = assay: In vivo inhibition of XIAP interaction with SMAC in human MDA-MB-231 cells xenografted in Balb/c SCID mouse at 20 mg/kg, po administered as single dose measured up to 72 hrs by MSD plate-based assay; format: functional, organism-based
MDA-MB-231 [6] = assay: Antitumor activity against human MDA-MB-231 cells xenografted in Balb/c mouse assessed as tumor growth inhibition at 16 mg/kg, po qd after 1 to 22 days; format: functional, organism-based
Mus musculus [7] = assay: Reduction in cIAP1 level in tumor of Balb/c SCID mouse xenografted with human MDA-MB-231 cells at 20 mg/kg, po administered as single dose measured up to 72 hrs by MSD plate-based assay; format: functional, organism-based
MDA-MB-231 [8] = assay: Antitumor activity against human MDA-MB-231 cells xenografted in Balb/c mouse assessed as tumor growth inhibition at 20 mg/kg, po qd after 1 to 22 days; format: functional, organism-based
[9] = Drug level in cynomolgus monkey hepatocytes treated with 1-(6-(4-fluorobenzyl)-3,3-dimethyl-2,3-dihydro-1H-pyrrolo[3,2-b]pyridin-1-yl)-2-((2R,5R)-5-methyl-2-(((R)-3-methylmorpholino)methyl)piperazin-1-yl)ethanone at 10 uM up to 90 mins by LC-MS analysis; format: ADME, cell-based, Macaca fascicularis, Hepatocyte
[10] = Drug level in CD-1 mouse hepatocytes treated with 1-(6-(4-fluorobenzyl)-3,3-dimethyl-2,3-dihydro-1H-pyrrolo[3,2-b]pyridin-1-yl)-2-((2R,5R)-5-methyl-2-(((R)-3-methylmorpholino)methyl)piperazin-1-yl)ethanone at 10 uM up to 90 mins by LC-MS analysis; format: ADME, cell-based, Hepatocyte
[11] = Drug level in human hepatocytes treated with 1-(6-(4-fluorobenzyl)-3,3-dimethyl-2,3-dihydro-1H-pyrrolo[3,2-b]pyridin-1-yl)-2-((2R,5R)-5-methyl-2-(((R)-3-methylmorpholino)methyl)piperazin-1-yl)ethanone at 10 uM up to 90 mins by LC-MS analysis; format: ADME, cell-based, Hepatocyte

Sequence of CYP3A4 (P08684 whole entry): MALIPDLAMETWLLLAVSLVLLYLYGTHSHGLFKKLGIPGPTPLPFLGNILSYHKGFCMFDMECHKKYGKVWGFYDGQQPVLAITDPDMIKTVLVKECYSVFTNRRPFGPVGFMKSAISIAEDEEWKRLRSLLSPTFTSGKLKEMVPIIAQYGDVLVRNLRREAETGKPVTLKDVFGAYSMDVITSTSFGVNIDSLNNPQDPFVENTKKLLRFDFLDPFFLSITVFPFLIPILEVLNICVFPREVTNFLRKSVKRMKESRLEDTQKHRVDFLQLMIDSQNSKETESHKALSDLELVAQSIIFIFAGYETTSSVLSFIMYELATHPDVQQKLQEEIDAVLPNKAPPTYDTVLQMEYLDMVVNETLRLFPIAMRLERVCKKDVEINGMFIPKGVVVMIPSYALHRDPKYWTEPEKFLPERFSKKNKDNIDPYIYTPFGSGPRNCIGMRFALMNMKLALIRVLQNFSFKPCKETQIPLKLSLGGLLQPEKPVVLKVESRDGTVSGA
Sequence of hERG (KCNH2) (Q12809 whole entry): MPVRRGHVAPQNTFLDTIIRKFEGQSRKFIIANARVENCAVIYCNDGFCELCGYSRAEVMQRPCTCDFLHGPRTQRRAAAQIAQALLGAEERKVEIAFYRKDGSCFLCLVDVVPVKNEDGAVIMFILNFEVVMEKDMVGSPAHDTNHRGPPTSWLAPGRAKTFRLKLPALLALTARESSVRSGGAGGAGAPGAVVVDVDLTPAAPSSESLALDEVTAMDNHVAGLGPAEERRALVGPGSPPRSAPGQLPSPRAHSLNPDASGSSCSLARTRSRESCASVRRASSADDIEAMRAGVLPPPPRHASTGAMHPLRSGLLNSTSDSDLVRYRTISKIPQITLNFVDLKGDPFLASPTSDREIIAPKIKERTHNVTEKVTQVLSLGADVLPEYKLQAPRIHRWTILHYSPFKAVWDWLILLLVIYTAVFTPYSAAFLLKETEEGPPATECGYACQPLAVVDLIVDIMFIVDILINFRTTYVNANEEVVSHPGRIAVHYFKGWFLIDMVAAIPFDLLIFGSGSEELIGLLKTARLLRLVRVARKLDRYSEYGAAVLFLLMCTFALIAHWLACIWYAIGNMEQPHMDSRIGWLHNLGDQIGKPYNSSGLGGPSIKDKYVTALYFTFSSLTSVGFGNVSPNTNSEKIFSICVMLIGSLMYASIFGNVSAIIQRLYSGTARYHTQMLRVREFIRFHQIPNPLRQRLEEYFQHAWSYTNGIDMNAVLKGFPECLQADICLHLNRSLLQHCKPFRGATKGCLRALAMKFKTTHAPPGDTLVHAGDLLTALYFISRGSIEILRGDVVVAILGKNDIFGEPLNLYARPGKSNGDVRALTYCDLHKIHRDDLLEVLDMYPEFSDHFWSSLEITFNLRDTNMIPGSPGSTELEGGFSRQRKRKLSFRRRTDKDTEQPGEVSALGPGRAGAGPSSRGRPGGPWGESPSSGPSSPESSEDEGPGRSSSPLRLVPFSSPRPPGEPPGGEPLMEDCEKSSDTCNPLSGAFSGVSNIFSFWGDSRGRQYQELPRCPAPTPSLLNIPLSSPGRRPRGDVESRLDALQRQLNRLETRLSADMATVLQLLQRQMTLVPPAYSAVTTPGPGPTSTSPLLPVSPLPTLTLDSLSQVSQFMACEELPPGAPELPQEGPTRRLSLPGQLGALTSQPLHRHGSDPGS

SMILES: C[C@@H]1CN(CC(=O)N2CC(C)(C)c3nnc(Cc4ccc(F)cc4F)cc32)[C@@H](CN2Cc3ccc(C#N)cc3C2=O)CN1
- inhibition at 10 min, 30 µM (hERG (KCNH2)): 18%
- half-life at 40 min, 1 µM (CYP3A4): 34 min
- chromatographic logD [1]: 2.9
- pIC50 (MDA-MB-231 [2]): 7.85

SMILES: C[C@@H]1CN(CC(=O)N2CC(C)(C)c3nnc(Cc4ccc(F)cc4F)cc32)[C@@H](CN2Cc3cc(F)ccc3C2=O)CN1
- inhibition at 10 min, 30 µM (hERG (KCNH2)): 25%
- half-life at 40 min, 1 µM (CYP3A4): 37 min
- chromatographic logD [1]: 2.6
- pIC50 (MDA-MB-231 [2]): 8.72

SMILES: CN[C@@H](C)C(=O)N[C@H](C(=O)N1CCC[C@H]1c1nc(C(=O)c2ccc(F)cc2)cs1)C1CCCCC1 [LCL-161]
- pIC50 (MDA-MB-231 [2]): 8.11

SMILES: C[C@@H]1CN(CC(=O)N2CC(C)(C)c3nc(CO)c(Cc4ccc(F)cc4)cc32)[C@@H](CN2CCOC[C@H]2C)CN1
- Activity (Mus musculus [5]): Active
- TGI (MDA-MB-231 [6]): Active
- Activity (Mus musculus [7]): Active
- TGI (MDA-MB-231 [8]): Active

SMILES: C[C@@H]1CN(CC(=O)N2CC(C)(C)c3ncc(Cc4ccc(F)cc4)cc32)[C@@H](CNCCO)CN1
- Drug uptake [9]: Active
- Drug uptake [10]: Active
- Drug uptake [11]: Active

SMILES: C[C@@H]1CN(CC(=O)N2CC(C)(C)c3nnc(Cc4ccc(F)cc4F)cc32)[C@@H](CN2Cc3cc(C#N)ccc3C2=O)CN1
- inhibition at 10 min, 30 µM (hERG (KCNH2)): 19%
- half-life at 40 min, 1 µM (CYP3A4): 42 min
- chromatographic logD [1]: 3
- pIC50 (MDA-MB-231 [2]): 8.28

The next lines start with the values.

- chromatographic logD [1]: 2.7
SMILES: C[C@@H]1CN(CC(=O)N2CC(C)(C)c3[nH]c(=O)c(Cc4ccc(F)cc4)cc32)[C@@H](CN2[C@H](C)COC[C@H]2C)CN1

- Drug uptake [3]: Active
SMILES: C[C@@H]1CN(CC(=O)N2CC(C)(C)c3nc(CO)c(Cc4ccc(F)cc4)cc32)[C@@H](CN2CCOC[C@H]2C)CN1.Cl.Cl

- bioavailability [4]: 31%
- bioavailability (in vivo): 13%
SMILES: C[C@@H]1CN(CC(=O)N2CC(C)(C)c3ncc([C@H](O)c4ccc(F)cc4)cc32)[C@@H](CN2[C@H](C)COC[C@H]2C)CN1

- chromatographic logD [1]: 2.4
SMILES: C[C@@H]1CN(CC(=O)N2CC(C)(C)c3cc(=O)n(Cc4ccc(F)cc4)cc32)[C@@H](CN2[C@H](C)COC[C@H]2C)CN1

- bioavailability [4]: 31%
- bioavailability (in vivo): 13%
- chromatographic logD [1]: 2.9
SMILES: C[C@@H]1CN(CC(=O)N2CC(C)(C)c3ncc([C@@H](O)c4ccc(F)cc4)cc32)[C@@H](CN2[C@H](C)COC[C@H]2C)CN1

— ChEMBL document CHEMBL4152349, “A Fragment-Derived Clinical Candidate for Antagonism of X-Linked and Cellular Inhibitor of Apoptosis Proteins: 1-(6-[(4-Fluorophenyl)methyl]-5-(hydroxymethyl)-3,3-dimethyl-1 H,2 H,3 H-pyrrolo[3,2- b]pyridin-1-yl)-2-[(2 R,5 …” (J Med Chem, 2018)
